Here are results for 7 compounds from PubChem BioAssay (NCI).

Test in all cases: growth of human tumour cells (NCI), 48 h
Assay [1] has as its system HCT-116 colon.
Assay [2] relates to SN12C renal.
The test system of assay [3] is U251 CNS.
Assay [4] relates to 786-0 renal.
Assay [5] concerns SF-268 CNS.
The test system of assay [6] is HS 578T breast.
Assay [7] deals with KM12 colon.
Assay [8] has as its system NCI-H23 lung.
Assay [9] deals with A549 NSCLC.
Assay [10] concerns K-562 leukemia.
Assay [11] relates to MDA-N.
Assay [12] concerns BT-549 breast.
Assay [13] deals with DU-145 prostate.
The test system of assay [14] is ACHN renal.
In assay [15] the test system is HOP-62 NSCLC.
Assay [16] deals with COLO 205 colon.
The subject of assay [17] is UACC-62 melanoma.
Assay [18] concerns CAKI-1 renal.
Assay [19] relates to OVCAR-5 ovarian.

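48-hour exposure; five concentrations; linearly interpolated endpoints. The concentration for full growth arrest is given as TGI.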 A value given as a limit tells only on which side of the number the result lay.

Consider `Cn1c(=O)c2c(nc3sc4c(n32)C(=O)c2c(O)ccc(O)c2C4=O)n(C)c1=O`, for which the TGI in [1] was 4.68 µM; in assay [2], 3.93 µM; in [3], over 48.7 µM; in assay [4], 4.37 µM; in assay [5], 24.5 µM; in [6], 64.1 µM. Moreover, the TGI was 11.6 µM in assay [7]; 21.2 µM in assay [8]; 59.6 µM in assay [9]; 2.44 µM in [10]; 4.1 µM in [11]; 17.7 µM in assay [12]. For the same compound, the TGI in assay [13] was 26.7 µM; in assay [14], 8.33 µM; in [15], 30 µM; in assay [16], 12.1 µM; in assay [17], 8.5 µM; in assay [18] it was 18.6 µM. The compound also showed a TGI in assay [19] of 48.6 µM.

In the case of `COc1ccc2[nH]cc(C(=O)C(=O)NC34CC5CC(CC(C5)C3)C4)c2c1`, the TGI in assay [1] was over 100 µM; in assay [2], 51.9 µM; in assay [3] it was over 85.3 µM; in assay [4], 47.5 µM; in [5], over 100 µM; in assay [6], over 91.1 µM. The TGI in assay [7] is over 100 µM; in [8] it was over 100 µM; in [9], over 100 µM; in assay [10], 37.6 µM; in assay [11] it was over 100 µM; in assay [12], over 100 µM. Also, the TGI in assay [13] is over 100 µM; in assay [14] it was over 100 µM; in assay [15], 74.7 µM; in [16], over 100 µM; in assay [17] it was over 69.4 µM; in assay [18], over 100 µM. This compound yielded a TGI in assay [19] of over 100 µM.

Turning to `CC1(C)CC(=O)C2=C(C1)NC1=C(C2)C(=O)CC(C)(C)C1`, the TGI in [1], in assay [2], in [3], in assay [4], in assay [5] and in assay [6] was over 100 µM in each case. The TGI in assay [7], in [8], in assay [9], in assay [10], in assay [11] and in assay [12] was over 100 µM in each case. For the same compound, the TGI in assay [13], in assay [14], in assay [15], in assay [16], in [17] and in assay [18] was over 100 µM throughout. The same compound registered a TGI in assay [19] of over 100 µM.

Turning to `OC[P+](CO)(CO)C12CC3CC(CC(C3)C1)C2`, the TGI in assay [1] was over 100 µM; in assay [2], over 100 µM; in assay [3], over 100 µM; in [4], over 26 µM; in assay [5], over 100 µM; in assay [6], over 100 µM. Further, the TGI in assay [7], in assay [8], in assay [9], in assay [10], in assay [11] and in assay [12] was over 100 µM each time. Besides, the TGI in [13], in assay [14], in [15], in assay [16], in assay [17] and in assay [18] was over 100 µM in each case. In addition, the TGI in assay [19] was over 100 µM.

Regarding `NC(=O)c1ncn(C2OC(CO)C(O)C2O)c1NC=O` (stereo not drawn), the TGI in assay [1], in assay [2], in assay [3], in assay [4], in [5] and in assay [6] was over 100 µM in each case. Moreover, the TGI in [7], in assay [8], in assay [9], in assay [10], in [11] and in assay [12] was over 100 µM each time. The TGI in [13], in assay [14], in assay [15], in [16], in assay [17] and in assay [18] was over 100 µM throughout. In assay [19], the TGI is over 100 µM.

With `CC1(C)C2CC(O)C1CCC2=O` (stereo not drawn), the TGI in [1], in assay [2], in assay [3], in assay [4], in assay [5] and in [6] was over 100 µM each time. The TGI in assay [7], in [8], in [9], in assay [10], in assay [11] and in assay [12] was over 100 µM in each case. Besides, the TGI in assay [13], in [14], in assay [15], in [16], in assay [17] and in assay [18] was over 100 µM in each case. This compound also registered a TGI in assay [19] of over 100 µM.

As for `C=C1CCCC(C)(C)C1CCC1(C)CCC(C(C)C(=O)OC)OO1` (stereo not drawn), the TGI is over 25 µM in [1]; 8.4 µM in [2]; 7.21 µM in assay [3]; 0.76 µM in assay [4]; 7.77 µM in assay [5]; 13.8 µM in [6]. Besides, the TGI is 2.84 µM in assay [7]; 8.99 µM in assay [8]; 4.15 µM in assay [9]; over 25 µM in assay [10]; 7.39 µM in assay [11]; 9.97 µM in [12]. Also, the TGI is 8.63 µM in assay [13]; 2.75 µM in assay [14]; 4.7 µM in [15]; 13.3 µM in assay [16]; over 15.5 µM in assay [17]; 0.749 µM in assay [18]. For the same compound, the TGI in [19] is over 23.1 µM.
